Publication PMC7988117, “OMN6 a novel bioengineered peptide for the treatment of multidrug resistant Gram negative bacteria” (Scientific Reports, 2021)
Like-named read-outs stand apart in the source and are kept apart here.

Legend:
[1] = test system: A. baumannii BAA-1793; conditions: determined by ATCC according to CLSI guidelines, ref ATCC; cited from earlier work
Description: Supplement 41598_2021_86155_MOESM1_ESM.docx, table 3: Table S3. Supplementary information about the resistance pattern of the bacterial strain A. baumannii BAA-1793 used in the Minimum Inhibitory Concentration study presented in Table 1.

[2] = test system: Staphylococcus aureus; experiment: VITEK 2 antimicrobial sensitivity characterization; type: cell-based; conditions: VITEK 2 system, CLSI ranges
Experimental: (§1) This experiment was conducted by Omnix Medical, by JMI Laboratories (North Liberty, IA, USA) and by Aptuit (Verona) S.r.l. (Italy), an Evotec Company. All studies were performed according to Clinical and Laboratory Standards Institute guidelines[30] for the application of the broth microdilution method. Reference strains from American Type Culture Collection (ATCC) and clinical isolates from the Evotec EvostrAIn and the JMI Laboratories SENTRY surveillance program culture collections (Acinetobacter baumannii: ACC 00445, ACC 00527, ACC 00535, ATCC 17978, ATCC 19606, ATCC BAA-1793, ACC 01076, ACC 01077, NCTC 13420, JMI #1088100 and JMI #1001007; Klebsiella pneumoniae: ATCC 43816 and ATCC BAA-1705; Escherichia coli: ACC 01001 and ATCC 25922; Staphylococcus aureus: ATCC 29213, ATCC BAA-44 and ATCC 33591; Bacillus cereus: ATCC 14579; Enterococcus faecalis: ATCC 29212; Enterococcus faecium: ATCC BAA-2319) were used. The antimicrobial activity of OMN6 was determined by 12 serial two-fold dilutions in water of the 100-fold highest compound solution; 1 µL of each well was transferred into 96 microtiter plates (final concentration: 256–0.12 µg/mL). In most strains, same procedure was used to determine the colistin antimicrobial activity (final concentration: 32–0.015 µg/mL). Bacterial strains were sub-cultured on the agar plates and incubated for 18–24 h at 35 ± 2 °C in ambient air. Following incubation, the inoculum was prepared from isolated colonies and adjusted to 0.5 McFarland turbidity standard (1 to 2 × 10^8 colony-forming units/mL) in 0.9% saline. Bacterial suspension was then diluted 1:200 in Muller-Hinton broth (from BD; Becton, Dickinson and Company, Franklin Lakes, NJ, USA) and within 15 min 100 µL/well were dispensed. Growth-control wells and sterility-check wells (uninoculated well) were present in each plate. Plates were incubated for 18–24 h at 35 ± 2 °C in ambient air. […] The antimicrobial activity to other antibiotics on most bacterial strains was determined by Evotec using the antimicrobial sensitive test from the VITEK 2 automated microbiology system (bioMérieux SA, Marcy l'Etoile, France; data presented in Table S1), or by ATCC according to CLSI (Clinical and Laboratory Standards Institute) guidelines[30]
Table S1. Supplementary information about the resistance pattern of 14 bacterial strains used in the Minimum Inhibitory Concentration study presented in Table 1. The resistance pattern of the different bacterial isolates was characterized by broth microdilution studies (for colistin) or with the VITEK 2 system (for the other antibiotics).

[3] = test system: E. faecium BAA-2319; conditions: determined by ATCC according to CLSI guidelines, ref ATCC; cited from earlier work
Description: Supplement 41598_2021_86155_MOESM1_ESM.docx, table 2: Table S2. Supplementary information about the resistance pattern of the bacterial strain E. faecium BAA-2319 used in the Minimum Inhibitory Concentration study presented in Table 1.

[4] = test system: Acinetobacter baumannii clinical isolates; experiment: Time-kill studies; type: cell-based; conditions: Difco Muller Hinton Broth
Experimental: Time-kill experiments were performed by JMI Laboratories (North Liberty, IA, USA) as described in chapter 5.14 of the Clinical Microbiology Procedures Handbook[32] and the CLSI M26-A[33] document. Two Acinetobacter baumannii clinical isolates (JMI colistin-sensitive strain #1088100 and colistin-resistant strain #1001007) were used for this study. MIC values that were determined in Difco Muller Hinton Broth (BD) for OMN6 and colistin as described above, were used as the baseline values during time-kill testing. In the time-kill experiments, OMN6 and colistin were tested in Difco Muller Hinton Broth. The time-kill cultures were sampled at 0, 2, 4, 8, and 24 h after compound addition. The number of CFU/mL in each culture was measured by plating 100 μL of serial dilutions onto blood agar plates. Colonies were counted after 48 h of growth at 35 °C. Time-kill curves were generated by plotting CFU/mL as log10 values over time. The limit of detection was 10 CFU/mL. Bactericidal activity was defined as a ≥ 99.9% reduction (i.e., a ≥ 3 log10 decrease) in the number of input bacterial cells at any arbitrary timepoint.

[5] = test system: Acinetobacter baumannii; conditions: Difco Muller Hinton Broth, data not shown
Experimental: as §1

Compound	Resistance pattern [1]	further results
CCn1cc(C(=O)O)c(=O)c2ccc(C)nc21 [Nalidixic Acid]	R	
CC[C@H]1OC(=O)[C@H](C)[C@@H](O[C@H]2C[C@@](C)(OC)[C@@H](O)[C@H](C)O2)[C@H](C)[C@@H](O[C@@H]2O[C@H](C)C[C@H](N(C)C)[C@H]2O)[C@](C)(O)C[C@@H](C)C(=O)[C@H](C)[C@@H](O)[C@]1(C)O [ERY, erythromycin]		VITEK characterization (resistance range) ([2]; S. aureus ATCC 29213): S; VITEK characterization (resistance range) ([2]; S. aureus ATCC 33591): R; Resistance pattern [3]: R
NCC[C@H](O)C(=O)N[C@@H]1C[C@H](N)[C@@H](O[C@H]2O[C@H](CN)[C@@H](O)[C@H](O)[C@H]2O)[C@H](O)[C@H]1O[C@H]1O[C@H](CO)[C@@H](O)[C@H](N)[C@H]1O [Amikacin]	S	
NC[C@H]1O[C@H](O[C@H]2[C@H](O)[C@@H](O[C@H]3O[C@H](CO)[C@@H](O)[C@H](N)[C@H]3O)[C@H](N)C[C@@H]2N)[C@H](N)C[C@@H]1O [Tobramycin]	R	
CC1(C)S[C@@H]2[C@H](NC(=O)Cc3ccccc3)C(=O)N2[C@H]1C(=O)O [Benzylpenicillin]		Resistance pattern [3]: R
C[C@@H](O)[C@H]1C(=O)N2C(C(=O)O)=C(S[C@@H]3CN[C@H](C(=O)N(C)C)C3)[C@H](C)[C@H]12 [Meropenem]	R	
colistin		Concentrations with bactericidal effect ([4]; colistin-resistant A. baumannii JMI #1001007, bactericidal = ≥ 3 log10 decrease): 16 to 32 µg/mL; Concentrations with bactericidal effect after 2 h of incubation ([4]; colistin-sensitive A. baumannii JMI #1088100, bactericidal = ≥ 3 log10 decrease): > 0.25 µg/mL; Re-growth during the 24 h timeframe ([4]; colistin-sensitive A. baumannii JMI #1088100, sampled 0, 2, 4, 8, 24 h): No re-growth; MIC colistin value ([5]; A. baumannii JMI #1001007 colistin-resistant strain): 8 µg/mL; MIC colistin value ([5]; A. baumannii JMI #1088100 colistin-sensitive strain): 0.5 µg/mL
CCN1CCN(C(=O)N[C@@H](C(=O)N[C@@H]2C(=O)N3[C@@H]2SC(C)(C)[C@@H]3C(=O)O)c2ccccc2)C(=O)C1=O [Piperacillin]	R	
CO/N=C(\C(=O)N[C@@H]1C(=O)N2C(C(=O)O)=CCS[C@H]12)c1csc(N)n1 [Ceftizoxime]	R	
C[C@H]1COc2c(N3CCN(C)CC3)c(F)cc3c(=O)c(C(=O)O)cn1c23 [Levofloxacin]		Resistance pattern [3]: R
CO/N=C(\C(=O)N[C@@H]1C(=O)N2C(C(=O)O)=C(CSc3nc(=O)c(=O)[nH]n3C)CS[C@H]12)c1csc(N)n1 [Ceftriaxone]	R	
Cc1nnc(SCC2=C(C(=O)O)N3C(=O)[C@@H](NC(=O)Cn4cnnn4)[C@H]3SC2)s1 [Cefazolin]	R	
CO[C@@]1(NC(=O)C2SC(=C(C(N)=O)C(=O)O)S2)C(=O)N2C(C(=O)O)=C(CSc3nnnn3C)CS[C@@H]21 (stereo partly shown) [Cefotetan]	R	
CO/N=C(\C(=O)N[C@@H]1C(=O)N2C(C(=O)[O-])=C(C[N+]3(C)CCCC3)CS[C@H]12)c1csc(N)n1 [Cefepime]	R	
CCn1cc(C(=O)O)c(=O)c2cc(F)c(N3CCNCC3)cc21 [Norfloxacin]	R	
COCC1=C(C(=O)O)N2C(=O)[C@@H](NC(=O)/C(=N\OC)c3csc(N)n3)[C@H]2SC1 [Cefpodoxime]	R	
CC1(C)S[C@@H]2[C@H](NC(=O)[C@H](C(=O)O)c3ccsc3)C(=O)N2[C@H]1C(=O)O [Ticarcillin]	R	
CO/N=C(\C(=O)N[C@@H]1C(=O)N2C(C(=O)O)=C(COC(N)=O)CS[C@H]12)c1ccco1 [Cefuroxime]	R	
Cc1onc(-c2ccccc2)c1C(=O)N[C@@H]1C(=O)N2[C@@H]1SC(C)(C)[C@@H]2C(=O)O [OXA, oxacillin]		VITEK characterization (resistance range) ([2]; S. aureus ATCC 29213): S; VITEK characterization (resistance range) ([2]; S. aureus ATCC 33591): R
C[C@H]1[C@H](NC(=O)/C(=N\OC(C)(C)C(=O)O)c2csc(N)n2)C(=O)N1S(=O)(=O)O [Aztreonam]	R	
COc1c(N2C[C@@H]3CCCN[C@@H]3C2)c(F)cc2c(=O)c(C(=O)O)cn(C3CC3)c12 [Moxifloxacin]	R	
CC1(C)S[C@@H]2[C@H](NC(=O)[C@H](N)c3ccccc3)C(=O)N2[C@H]1C(=O)O [Ampicillin]	R	Resistance pattern [3]: R
CO[C@@]1(NC(=O)Cc2cccs2)C(=O)N2C(C(=O)O)=C(COC(N)=O)CS[C@@H]21 [Cefoxitin]	R	
CO/N=C(\C(=O)N[C@@H]1C(=O)N2C(C(=O)OC(C)OC(C)=O)=C(COC(N)=O)CS[C@H]12)c1ccco1 (stereo partly shown) [Cefuroxime Axetil]	R	
O=C1CN(/N=C/c2ccc([N+](=O)[O-])o2)C(=O)N1 [Nitrofurantoin]	R	Resistance pattern [3]: R
CC(=O)OCC1=C(C(=O)O)N2C(=O)[C@@H](NC(=O)Cc3cccs3)[C@H]2SC1 [Cefalotin]	R	
CN[C@H](CC(C)C)C(=O)N[C@H]1C(=O)N[C@@H](CC(N)=O)C(=O)N[C@H]2C(=O)N[C@H]3C(=O)N[C@H](C(=O)N[C@H](C(=O)O)c4cc(O)cc(O)c4-c4cc3ccc4O)[C@H](O)c3ccc(c(Cl)c3)Oc3cc2cc(c3O[C@@H]2O[C@H](CO)[C@@H](O)[C@H](O)[C@H]2O[C@H]2C[C@](C)(N)[C@H](O)[C@H](C)O2)Oc2ccc(cc2Cl)[C@H]1O [VAN, vancomycin]		VITEK characterization (resistance range) ([2]; S. aureus ATCC 29213): S; VITEK characterization (resistance range) ([2]; S. aureus ATCC 33591): S; Resistance pattern [3]: R
CN(C)[C@@H]1C(O)=C(C(N)=O)C(=O)[C@@]2(O)C(O)=C3C(=O)c4c(O)cccc4[C@@](C)(O)[C@H]3C[C@@H]12 [TET, tetracycline]	R	VITEK characterization (resistance range) ([2]; S. aureus ATCC 29213): S; VITEK characterization (resistance range) ([2]; S. aureus ATCC 33591): R; Resistance pattern [3]: R
CCC[C@@H]1C[C@@H](C(=O)N[C@@H]([C@H]2O[C@H](SC)[C@H](O)[C@@H](O)[C@H]2O)[C@H](C)Cl)N(C)C1 [CLI, clindamycin]		VITEK characterization (resistance range) ([2]; S. aureus ATCC 29213): S; VITEK characterization (resistance range) ([2]; S. aureus ATCC 33591): R
CN(C)c1cc(NC(=O)CNC(C)(C)C)c(O)c2c1C[C@H]1C[C@H]3[C@H](N(C)C)C(O)=C(C(N)=O)C(=O)[C@@]3(O)C(O)=C1C2=O [Tigecycline]	S	Resistance pattern [3]: S
